Laboratory results from patent publication US20240358693A1, “METHODS OF TREATING PAIN” (Aisa Pharma, Inc., priority 2023, published 2024).

Test system: participants with SSc-RP
Assay: Scleroderma Health Assessment Questionnaire (SHAQ): disability indices and visual analog scales
Type: in vivo, human
Conditions: Day 12 vs baseline; PP Population, Part A; SSc patients; sensitivity analysis
Source text: The standard, validated, patient reported outcome measures tool for SSc patients, the Scleroderma Health Assessment Questionnaire (SHAQ), will be used to assess the participant qualify of life. Details are attached in the Appendix. The participant quality of life will be scored, and a disability index calculated for each questionnaire completed by the patient at Screening and each in-clinic visit. The absolute change in participant quality of life from baseline to the end of each dosing period will be calculated similar to frequency data as before.
The SHAQ includes a Raynaud's VAS, which will be reported at screening and each in-clinic visit. The absolute change in Raynaud-VAS, assessed by the participants response to the SHAQ question ‘In the past 7 days, how much have your Raynaud's interfered with your daily activities?’ at baseline and the end of each dosing period will be calculated similar to frequency data as before.
The SHAQ is used to calculate a Disability Index to assess the participant qualify of life. The eight categories assessed by the Disability Index are 1) dressing and grooming, 2) arising, 3) eating, 4) walking, 5) hygiene, 6) reach, 7) grip, and 8) common daily activities. For each of these categories, patients report the amount of difficulty they have in performing two or three specific activities.
There are four possible responses for the Disability Index questions: • Without any difficulty=0 • With some difficulty=1 • With much difficulty=2 • Unable to do=3. • The highest score reported by the patient for any component question of the eight categories determines the score for that category. • If a component question is left blank or the response is too ambiguous to assign a score, then the score for that category is determined by the remaining completed question(s). • If all component questions are blank or if more than one answer is given, then follow up with the respondent is required. • If the respondent's mark is between the response columns, then move it to the closest one. If it's directly between the two, move it to the higher one.
Each of the disability items on the SHAQ has a companion aids/devices variable that is used to record what type(s) of assistance, if any, the participant uses for his/her usual activities. These variables (see below) are coded as follows: • 0=No assistance is needed. • 1=A special device is used by the patient in his/her usual activities. • 2=The patient usually needs help from another person. • 3=The patient usually needs BOTH a special device AND help from another person.
The scoring variables and scoring rules permit the computation of two disability indices, the Standard Disability Index and the Alternative Disability Index.
This question results in a new set of category scores that are computed by adjusting the score for each category, if necessary, based on the patient's use of an aid or device or assistance for that category. If either devices and/or help from another person are checked for a category, the score is set to “2”, unless the score is already “3” (i.e., scores of “0” or “1” are increased to “2”). For example, if the highest score for the dressing category is “1”, and the patient says they use a device for dressing, the computed category score would be “2”. The sum of the computed categories scores is then calculated and divided by the number of categories answered. This gives a score in the 0 to 3 range.
The aid and device variables are not used to calculate the alternative disability index; it is calculated by adding the scores for each of the categories and dividing by the number of categories answered. This gives a score in the 0 to 3 range.
The standard, validated, patient reported outcome measures tool for SSc patients, the SHAQ, was collected at the time points specified in the study schedules (FIG. 2 and FIGS. 4A and 4B) to assess the participant's quality of life. The SHAQ included a Raynaud's VAS that will also be reported separately.

## COCCOC(=O)C1=C(C)NC(C)=C(C(=O)OC/C=C/c2ccccc2)C1c1cccc([N+](=O)[O-])c1 (stereo not drawn) [Pooled Cilnidipine]
  SHAQ Alternative Disability Index, Change from Baseline, Max: 0.38
  SHAQ Alternative Disability Index, Change from Baseline, Mean: 0.031
  SHAQ Alternative Disability Index, Change from Baseline, Median: 0.000
  SHAQ Alternative Disability Index, Change from Baseline, Min: −0.13
  SHAQ Alternative Disability Index, Change from Baseline, Q1: −0.125
  SHAQ Alternative Disability Index, Change from Baseline, Q3: 0.125
  SHAQ Alternative Disability Index, Percent Change from Baseline, Max: 100.0%
  SHAQ Alternative Disability Index, Percent Change from Baseline, Mean: 9.68%
  SHAQ Alternative Disability Index, Percent Change from Baseline, Median: −11.11%
  SHAQ Alternative Disability Index, Percent Change from Baseline, Min: −50.0%
  SHAQ Alternative Disability Index, Percent Change from Baseline, Q1: −33.33%
  SHAQ Alternative Disability Index, Percent Change from Baseline, Q3: 42.86%
  SHAQ Visual Analogue Scale - Finger Ulcers, Change from Baseline, Max: 0.40
  SHAQ Visual Analogue Scale - Finger Ulcers, Change from Baseline, Mean: −0.643
  SHAQ Visual Analogue Scale - Finger Ulcers, Change from Baseline, Median: 0.000
  SHAQ Visual Analogue Scale - Finger Ulcers, Change from Baseline, Min: −3.20
  SHAQ Visual Analogue Scale - Finger Ulcers, Change from Baseline, Q1: −1.000
  SHAQ Visual Analogue Scale - Finger Ulcers, Change from Baseline, Q3: 0.000
  SHAQ Visual Analogue Scale - Finger Ulcers, Percent Change from Baseline, Max: 133.3%
  SHAQ Visual Analogue Scale - Finger Ulcers, Percent Change from Baseline, Mean: −17.08%
  SHAQ Visual Analogue Scale - Finger Ulcers, Percent Change from Baseline, Median: −50.82%
  SHAQ Visual Analogue Scale - Finger Ulcers, Percent Change from Baseline, Min: −100.0%
  SHAQ Visual Analogue Scale - Finger Ulcers, Percent Change from Baseline, Q1: −81.37%
  SHAQ Visual Analogue Scale - Finger Ulcers, Percent Change from Baseline, Q3: 47.22%
  SHAQ Visual Analogue Scale - Intestinal Problems, Change from Baseline, Max: 0.60
  SHAQ Visual Analogue Scale - Intestinal Problems, Change from Baseline, Mean: −0.863
  SHAQ Visual Analogue Scale - Intestinal Problems, Change from Baseline, Median: −0.050
  SHAQ Visual Analogue Scale - Intestinal Problems, Change from Baseline, Min: −4.40
  SHAQ Visual Analogue Scale - Intestinal Problems, Change from Baseline, Q1: −1.650
  SHAQ Visual Analogue Scale - Intestinal Problems, Change from Baseline, Q3: 0.150
  SHAQ Visual Analogue Scale - Intestinal Problems, Percent Change from Baseline, Max: 40.0%
  SHAQ Visual Analogue Scale - Intestinal Problems, Percent Change from Baseline, Mean: −43.69%
  SHAQ Visual Analogue Scale - Intestinal Problems, Percent Change from Baseline, Median: −66.06%
  SHAQ Visual Analogue Scale - Intestinal Problems, Percent Change from Baseline, Min: −100.0%
  SHAQ Visual Analogue Scale - Intestinal Problems, Percent Change from Baseline, Q1: −100.00%
  SHAQ Visual Analogue Scale - Intestinal Problems, Percent Change from Baseline, Q3: 30.00%
  SHAQ Visual Analogue Scale - Overall Disease Severity, Change from Baseline, Max: 0.20
  SHAQ Visual Analogue Scale - Overall Disease Severity, Change from Baseline, Mean: −1.450
  SHAQ Visual Analogue Scale - Overall Disease Severity, Change from Baseline, Median: −1.550
  SHAQ Visual Analogue Scale - Overall Disease Severity, Change from Baseline, Min: −3.10
  SHAQ Visual Analogue Scale - Overall Disease Severity, Change from Baseline, Q1: −1.850
  SHAQ Visual Analogue Scale - Overall Disease Severity, Change from Baseline, Q3: −0.950
  SHAQ Visual Analogue Scale - Overall Disease Severity, Percent Change from Baseline, Max: −26.8%
  SHAQ Visual Analogue Scale - Overall Disease Severity, Percent Change from Baseline, Mean: −61.10%
  SHAQ Visual Analogue Scale - Overall Disease Severity, Percent Change from Baseline, Median: −60.00%
  SHAQ Visual Analogue Scale - Overall Disease Severity, Percent Change from Baseline, Min: −100.0%
  SHAQ Visual Analogue Scale - Overall Disease Severity, Percent Change from Baseline, Q1: −76.19%
  SHAQ Visual Analogue Scale - Overall Disease Severity, Percent Change from Baseline, Q3: −44.12%
  SHAQ Visual Analogue Scale - Pain, Change from Baseline, Max: 0.70
  SHAQ Visual Analogue Scale - Pain, Change from Baseline, Mean: −0.375
  SHAQ Visual Analogue Scale - Pain, Change from Baseline, Median: −0.250
  SHAQ Visual Analogue Scale - Pain, Change from Baseline, Min: −2.00
  SHAQ Visual Analogue Scale - Pain, Change from Baseline, Q1: −0.750
  SHAQ Visual Analogue Scale - Pain, Change from Baseline, Q3: 0.150
  SHAQ Visual Analogue Scale - Pain, Percent Change from Baseline, Max: 19.4%
  SHAQ Visual Analogue Scale - Pain, Percent Change from Baseline, Mean: −23.98%
  SHAQ Visual Analogue Scale - Pain, Percent Change from Baseline, Median: −41.18%
  SHAQ Visual Analogue Scale - Pain, Percent Change from Baseline, Min: −55.6%
  SHAQ Visual Analogue Scale - Pain, Percent Change from Baseline, Q1: −53.33%
  SHAQ Visual Analogue Scale - Pain, Percent Change from Baseline, Q3: 11.54%
  SHAQ Visual Analogue Scale - Raynaud’s, Change from Baseline, Max: 1.50
  SHAQ Visual Analogue Scale - Raynaud’s, Change from Baseline, Mean: −0.438
  SHAQ Visual Analogue Scale - Raynaud’s, Change from Baseline, Median: −0.600
